Source: article PMC12525728, “Safety, Pharmacokinetics, Translational and Molecular Mechanistic Insights on the Prostate Cancer Recurrence Suppressor Pseurotin A” (Molecules, 2025)

What was measured:
[1] = tested on: Swiss albino mice; test: 90-day daily oral dosing sub-chronic toxicity study (body weight, behavior, organ weight, histology); format: in vivo; conditions: for Relative organ weight, Brain / Relative organ weight, Heart / Relative organ weight, Kidneys / Relative organ weight, Liver / Relative organ weight, Lungs / Relative organ weight, Spleen: mean ± SD
Protocol: For the 90-day daily oral dosing sub-chronic toxicity study, twenty male and twenty female healthy 8-week-old Swiss albino mice were randomly selected and randomized to […] (n = 5/sex/group). Mice received free access to purified drinking water and high-fat diet (HFD) pelleted rodent chow (11.4% total fat, no. 7004, Envigo/Teklad, Madison, WI, USA) until the day before sacrifice, at which time they were fasted for 8 h and allowed only free access to drinking water. Daily doses of PsA (10, 40, 80 mg/kg body weight) were administered to the mice formulated in <5% DMSO (Mediatech Inc., Manassas, VA, USA) and <0.2% Tween 80 (Croda Inc., Princeton, NJ, USA) at a volume not exceeding 1% of body weight by metal oral gavage (2 mm diameter with stainless steel bite protector, 18-gauge, 3.81 cm long). […] The mice were observed weekly until the completion of the study. The body weights of the mice were measured in grams using a Scout^TM Pro (Ohaus Corp., Pine Brook, NJ, USA) on day 0, 4, 8, 11, 14, 21, 28, 35, 42, 49, 56, 63, 70, 77, 83, and 90 after initial treatment. On day 90, all mice were anesthetized using isoflurane (USP-vaporizer method, Matrix VIP-3000, Covetrus, Dublin, OH, USA, exposure of animals in an anesthesia chamber at 3% isoflurane vaporization rate. Exposure time 2 min). Mice were then euthanized by cervical dislocation according to the 2020 AVMA Guidelines on Euthanasia and dissected. Mice organs (brain, liver, kidney, heart, lungs, spleen) were excised and weighed for histopathological examination. The organs were stored in 10% neutral buffered formalin (Avantor Science Central, Allentown, PA, USA) for 24 h and then transferred to 70% ethanol (AAPER ALCOHOL, Shelbyville, KY, USA). This study was performed following the OECD guideline 408 for the testing of chemicals.
The experimental animals’ organs were carefully excised and quickly fixed in 10% neutral buffered formalin for 24 h before being transferred to 70% ethanol. The organs were embedded in paraffin before sectioning and staining with hematoxylin and eosin (H&E). All sectioning and staining were conducted at the AML Laboratories (Jacksonville, FL, USA). The paraffin-embedded tissues were sliced into 5 µm-thick sections before being mounted on a positively charged slide. The 5 µm-thick sections were then dewaxed using xylene, rinsed using 80–95% ethanol, and rehydrated using H2O. They were subsequently stained with H&E before being dehydrated again using 80–95% ethanol to xylene.
Results for the hematological and biochemical parameters were analyzed separately by One-way Analysis of Variance (ANOVA), followed by multiple comparisons with Dunnett’s test. All statistical analyses were performed using GraphPad Prism version 8 software (San Diego, CA, USA). Data in this study were expressed as a mean ± SD (standard deviation) and mean ± SEM (standard error of mean). A probability value of <0.05 was considered statistically significant (* p < 0.05; ** p < 0.01; and *** p < 0.001).

[2] = Pharmacokinetics study in Swiss albino mice; format: in vivo; conditions: following oral dosing
[3] = female, 10mg/kg daily oral 90 days
[4] = female, 40mg/kg daily oral 90 days
[5] = female, 80mg/kg daily oral 90 days
[6] = male, 10mg/kg daily oral 90 days
[7] = male, 40mg/kg daily oral 90 days
[8] = male, 80mg/kg daily oral 90 days

CC/C=C\[C@H](O)[C@H](O)C1=C(C)C(=O)[C@]2(O1)C(=O)N[C@@](OC)(C(=O)c1ccccc1)[C@@H]2O [PsA, pseurotin A]
behavioral, neuromuscular and autonomic responses ([1]; daily oral doses over 90 days): no observable effects
Relative organ weight, Brain [1, 3]: 438.5 ± 18.9
Relative organ weight, Heart [1, 3]: 197.7 ± 33.5
Relative organ weight, Kidneys [1, 3]: 475.9 ± 31.8
Relative organ weight, Liver [1, 3]: 1218 ± 31.6
Relative organ weight, Lungs [1, 3]: 211.7 ± 40.2
Relative organ weight, Spleen [1, 3]: 106.3 ± 48.4
Relative organ weight, Brain [1, 4]: 355.1 ± 25.2
Relative organ weight, Heart [1, 4]: 186.2 ± 12.3
Relative organ weight, Kidneys [1, 4]: 470.4 ± 87.8
Relative organ weight, Liver [1, 4]: 1311 ± 135.7
Relative organ weight, Lungs [1, 4]: 229.0 ± 37.1
Relative organ weight, Spleen [1, 4]: 125.1 ± 22.6
Relative organ weight, Brain [1, 5]: 376.7 ± 47.4
Relative organ weight, Heart [1, 5]: 231.1 ± 24.4
Relative organ weight, Kidneys [1, 5]: 461.9 ± 20.6
Relative organ weight, Liver [1, 5]: 1369 ± 146.3
Relative organ weight, Lungs [1, 5]: 236.9 ± 66.2
Relative organ weight, Spleen [1, 5]: 109.7 ± 20.2
average heart weight versus vehicle control ([1]; male 10 mg/kg and 40 mg/kg groups, 90 days): significant decrease
body weight versus vehicle control ([1]; male and female, 10, 40, 80 mg/kg daily oral 90 days, sixteen time points): did not show any significant changes
Relative organ weight, Heart [1, 6]: 248.1 ± 54.6
Relative organ weight, Kidneys [1, 6]: 684.7 ± 41.0
Relative organ weight, Liver [1, 6]: 1881 ± 134.3
Relative organ weight, Lungs [1, 6]: 288.8 ± 62.4
Relative organ weight, Spleen [1, 6]: 114.7 ± 21.4
Relative organ weight, Brain [1, 7]: 413.6 ± 54.5
Relative organ weight, Heart [1, 7]: 261.7 ± 25.2
Relative organ weight, Kidneys [1, 7]: 747.5 ± 92.3
Relative organ weight, Liver [1, 7]: 1869 ± 295.8
Relative organ weight, Lungs [1, 7]: 302.1 ± 23.5
Relative organ weight, Spleen [1, 7]: 118.5 ± 3.9
Relative organ weight, Brain [1, 8]: 409.2 ± 28.3
Relative organ weight, Heart [1, 8]: 320.8 ± 58.9
Relative organ weight, Kidneys [1, 8]: 673.7 ± 50.1
Relative organ weight, Liver [1, 8]: 1946 ± 272.4
Relative organ weight, Lungs [1, 8]: 209.9 ± 61.0
Relative organ weight, Spleen [1, 8]: 108.7 ± 12.1
organ histology (liver, lungs, kidneys, heart, brain) versus vehicle control ([1]; up to 80 mg/kg, 90-day dosing, H&E): no structural or morphological differences
plasma detectability by validated HPLC method [2]: not detectable in the plasma
